Literature values, collected in patent publication US7098376B2, “Transgenic mouse expressing constitutively active hydrocarbon receptor” (InDex Pharmaceuticals AB, priority 2000, dated 2006).

Test system: mouse models

Clc1cc2c(cc1Cl)Oc1cc(Cl)c(Cl)cc1O2 [TCDD, 2,3,7,8-tetrachlorodibenzo-p-dioxin]
dose at which weight loss or impaired weight gain are detected (mice exposed to TCDD): higher than 3 μg/kg body weight
acute toxic effects (e.g. lethality or the wasting syndrome) (single dose of 3 μg TCDD/kg body weight, mouse models): no acute toxic effects
